{"source": "paper PMC12133000", "about": "(PLOS One, 2025)", "test": "Pharmacokinetics of rivaroxaban in rats after avitinib or gefitinib pretreatment", "assay_type": "in vivo, Sprague–Dawley (SD) rats", "conditions": "for MRT last / AUC(0-inf) / Tmax / AUC(0-t) / CL/F / Cmax / half-life / MRT inf / Vd/F: male, Sprague-Dawley, rat, plasma, po, 10 mg/kg; for AUC(0-t): read-out: AUC(0–t); for CL/F: read-out: CLz/F (converted); for Cmax: read-out: Cmax; for half-life: read-out: t1/2 (converted); for MRT inf: read-out: MRT(0–∞); for Vd/F: read-out: Vz/F", "description": "Eighteen male Sprague–Dawley (SD) rats weighing 300 ± 20 g were provided by the Experimental Animal Center of Wenzhou Medical University (Wenzhou, China) and kept under controlled conditions at a temperature of 23 ± 2 °C, relative humidity of 50 ± 10%, and 12 h light–dark cycle. Eighteen male SD rats were randomly assigned to three groups: avitinib, gefitinib, and control, with six rats per group. Prior to the experiment, the rats were not administered any other medications and fasted for 12 h. The experimental procedures and protocols adhered to Animal Ethics standards and were approved by the Animal Care and Use Committee of Wenzhou Medical University (approval no. wydw2019–650). All rats were anesthetized with sodium pentobarbital (40mg/kg, i.p) to relieve pain. The rats were killed through cervical dislocation.\nPrior to the experiment in vivo, the six rats in the avitinib group were administered 30 mg/kg avitinib and 0.5% sodium carboxymethyl cellulose (CMC-Na) solution by gavage daily for 7 d. […] The supernatant was collected and stored at −80 °C. After thawing, 50 μL of plasma was extracted; 100 μL of acetonitrile solution containing midazolam (200 ng/mL) was then added to induce protein precipitation. After vortexing for 30 s and centrifuging at 13,000 rpm for 5 min, the […].\nAll assays were performed in triplicate, and the results are expressed as mean ± standard deviation. DAS software v. […] SPSS v. 25.0 (IBM, NY, USA) was used for data processing. Student’s t-tests were used to detect differences between groups. Differences with p < 0.05 were considered statistically significant.", "key": {"[1]": {"conditions": "rats, rivaroxaban 10 mg/kg oral, avitinib group (30 mg/kg pretreatment)"}, "[2]": {"conditions": "rats, rivaroxaban 10 mg/kg oral, control group (CMC-Na only)"}, "[3]": {"conditions": "rats, rivaroxaban 10 mg/kg oral, gefitinib group (25 mg/kg pretreatment)"}}, "note": "Values joined by “and” are separate entries in the source; they are usually repeats but may differ in a detail not shown here. Identical values can stand only once. Like-named read-outs stand apart in the source and are kept apart here.", "data": [{"smiles": "O=C(NC[C@H]1CN(c2ccc(N3CCOCC3=O)cc2)C(=O)O1)c1ccc(Cl)s1", "note": "[rivaroxaban, Rivaroxaban]", "values": [{"measurement": "MRT last", "setting": "gefitinib group, single rats No1-No6, read-out: MRT(0-t)", "result": 5.59, "unit": "h"}, {"measurement": "AUC(0-inf)", "setting": "[1]", "result": "9350 ± 3840", "unit": "ng·h/mL"}, {"measurement": "Tmax", "setting": "[1]", "result": "1.33 ± 0.82", "unit": "h"}, {"measurement": "AUC(0-t)", "setting": "[1]", "result": "9000 ± 3740", "unit": "ng·h/mL"}, {"measurement": "CL/F", "setting": "[1]", "result": 19.7, "unit": "mL/min/kg"}, {"measurement": "Cmax", "setting": "[1]", "result": "1810 ± 619", "unit": "ng/mL"}, {"measurement": "MRT last", "setting": "rats, rivaroxaban 10 mg/kg oral, avitinib group (30 mg/kg pretreatment), read-out: MRT(0–t)", "result": "3.79 ± 0.66", "unit": "h"}, {"measurement": "half-life", "setting": "[1]", "result": "2.2 ± 1.07", "unit": "h"}, {"measurement": "AUC(0-inf)", "setting": "[2]", "result": "2280 ± 870", "unit": "ng·h/mL"}, {"measurement": "Tmax", "setting": "[2]", "result": "0.83 ± 0.26", "unit": "h"}, {"measurement": "AUC(0-t)", "setting": "[2]", "result": "2250 ± 853", "unit": "ng·h/mL"}, {"measurement": "CL/F", "setting": "[2]", "result": 80.8, "unit": "mL/min/kg"}, {"measurement": "Cmax", "setting": "[2]", "result": "441 ± 81.8", "unit": "ng/mL"}, {"measurement": "MRT last", "setting": "rats, rivaroxaban 10 mg/kg oral, control group (CMC-Na only), read-out: MRT(0–t)", "result": "3.79 ± 1.08", "unit": "h"}, {"measurement": "MRT inf", "setting": "[2]", "result": "3.95 ± 1.05", "unit": "h"}, {"measurement": "Vd/F", "setting": "[2]", "result": "11.5 ± 2.63", "unit": "L/kg"}, {"measurement": "half-life", "setting": "[2]", "result": "1.61 ± 0.61", "unit": "h"}, {"measurement": "AUC(0-inf)", "setting": "[3]", "result": "76000 ± 20800", "unit": "ng·h/mL"}, {"measurement": "Tmax", "setting": "[3]", "result": "3.17 ± 0.98", "unit": "h"}, {"measurement": "AUC(0-t)", "setting": "[3]", "result": "58000 ± 5890", "unit": "ng·h/mL"}, {"measurement": "CL/F", "setting": "[3]", "result": 2.33, "unit": "mL/min/kg"}, {"measurement": "Cmax", "setting": "[3]", "result": "8310 ± 2100", "unit": "ng/mL"}, {"measurement": "MRT last", "setting": "rats, rivaroxaban 10 mg/kg oral, gefitinib group (25 mg/kg pretreatment), read-out: MRT(0–t)", "result": "4.9 ± 0.47", "unit": "h"}, {"measurement": "MRT inf", "setting": "[3]", "result": "8.23 ± 3.61", "unit": "h"}, {"measurement": "Vd/F", "setting": "[3]", "result": "0.87 ± 0.28", "unit": "L/kg"}, {"measurement": "half-life", "setting": "[3]", "result": "4.81 ± 2.7", "unit": "h"}, {"measurement": "MRT(0–∞)", "setting": "[1]", "result": "4.26 ± 1.12", "unit": "h"}, {"measurement": "rivaroxaban", "setting": "吉非替尼 (gefitinib) group, individual rats 7-12, time 0.0833", "result": "778.8 ng/mL and 334.9 ng/mL and 724.5 ng/mL and 847.1 ng/mL and 256.3 ng/mL and 816.3 ng/mL"}, {"measurement": "rivaroxaban", "setting": "吉非替尼 (gefitinib) group, individual rats 7-12, time 0.25", "result": "1686.1 ng/mL and 1476.8 ng/mL and 2176.1 ng/mL and 1686 ng/mL and 1747.2 ng/mL"}, {"measurement": "rivaroxaban", "setting": "吉非替尼 (gefitinib) group, individual rats 7-12, time 0.5", "result": "3330.8 ng/mL and 4408.9 ng/mL and 4082.8 ng/mL and 3161.2 ng/mL and 3240.3 ng/mL"}, {"measurement": "rivaroxaban", "setting": "吉非替尼 (gefitinib) group, individual rats 7-12, time 1", "result": "5012 ng/mL and 6707.2 ng/mL and 5280.7 ng/mL and 6110.2 ng/mL and 4481.1 ng/mL"}, {"measurement": "rivaroxaban", "setting": "吉非替尼 (gefitinib) group, individual rats 7-12, time 2", "result": "8309.8 ng/mL and 7015.4 ng/mL and 10641.7 ng/mL and 6946 ng/mL"}, {"measurement": "rivaroxaban", "setting": "吉非替尼 (gefitinib) group, individual rats 7-12, time 3", "result": "6431.9 ng/mL and 10386.8 ng/mL and 7734.1 ng/mL"}, {"measurement": "rivaroxaban", "setting": "吉非替尼 (gefitinib) group, individual rats 7-12, time 4", "result": "6136.6 ng/mL and 9214.1 ng/mL and 6949.9 ng/mL"}, {"measurement": "rivaroxaban", "setting": "吉非替尼 (gefitinib) group, individual rats 7-12, time 6", "result": "6115 ng/mL and 5681 ng/mL and 5825.4 ng/mL"}, {"measurement": "rivaroxaban", "setting": "吉非替尼 (gefitinib) group, individual rats 7-12, time 8", "result": "3374.5 ng/mL and 2542.2 ng/mL and 4779.1 ng/mL"}, {"measurement": "rivaroxaban", "setting": "吉非替尼 (gefitinib) group, individual rats 7-12, time 12", "result": "732.7 ng/mL and 1716.7 ng/mL and 1654.8 ng/mL and 917.3 ng/mL"}, {"measurement": "rivaroxaban", "setting": "对照 (control, rivaroxaban alone) group, individual rats 13-18, time 0.0833", "result": "278.3 ng/mL and 142.7 ng/mL and 136.5 ng/mL and 68.9 ng/mL and 158.6 ng/mL and 163.2 ng/mL"}, {"measurement": "rivaroxaban", "setting": "对照 (control, rivaroxaban alone) group, individual rats 13-18, time 0.25", "result": "264.9 ng/mL and 294.2 ng/mL and 171.8 ng/mL and 256.9 ng/mL and 261.1 ng/mL"}, {"measurement": "rivaroxaban", "setting": "对照 (control, rivaroxaban alone) group, individual rats 13-18, time 0.5", "result": "465.3 ng/mL and 337.5 ng/mL and 461.6 ng/mL and 378.7 ng/mL and 305.8 ng/mL"}, {"measurement": "rivaroxaban", "setting": "对照 (control, rivaroxaban alone) group, individual rats 13-18, time 2", "result": "261.4 ng/ml (2×) and 475.9 ng/ml and 181.6 ng/ml and 351.5 ng/ml and 418.6 ng/ml and 334.6 ng/ml"}, {"measurement": "rivaroxaban", "setting": "对照 (control, rivaroxaban alone) group, individual rats 13-18, time 3", "result": "240.8 ng/mL and 431.8 ng/mL and 207.2 ng/mL and 349.6 ng/mL"}, {"measurement": "rivaroxaban", "setting": "艾维替尼 (avitinib) group, individual rats 1-6, time 0.0833", "result": "380.2 ng/mL and 320.6 ng/mL and 287.7 ng/mL and 191 ng/mL and 288.9 ng/mL and 237.4 ng/mL"}, {"measurement": "rivaroxaban", "setting": "艾维替尼 (avitinib) group, individual rats 1-6, time 0.25", "result": "386.7 ng/ml (2×) and 727.9 ng/ml and 581.8 ng/ml and 614.9 ng/ml and 286.3 ng/ml and 927.5 ng/ml"}, {"measurement": "rivaroxaban", "setting": "艾维替尼 (avitinib) group, individual rats 1-6, time 0.5", "result": "990.9 ng/ml (2×) and 1066.3 ng/ml and 1018.5 ng/ml and 978.4 ng/ml and 583.2 ng/ml and 1904.4 ng/ml"}, {"measurement": "rivaroxaban", "setting": "艾维替尼 (avitinib) group, individual rats 1-6, time 1", "result": "1423.2 ng/ml (2×) and 1593.7 ng/ml and 2386.3 ng/ml and 1162.7 ng/ml and 1561.2 ng/ml and 2231.2 ng/ml"}]}]}
